Experiments:
gut microbiota = experiment: FLZ-to-M1 conversion in colonic contents with CYP51 inhibitors; format: in vitro ADME, mice; conditions: FLZ 2 μg/mL with CYP51 inhibitor 8 and 20 μg/mL, 6 h
CYP51 in gut microbiota = experiment: CYP51 activity in colonic contents; format: biochemical, mice; conditions: inhibitor 8 and 20 μg/mL, 6 h, vs. Control

Row | Concentration of FLZ in the colonic contents (gut microbiota) | Concentration of M1 in the colonic contents (gut microbiota) | Ratio of M1/FLZ in gut microbiota (gut microbiota) | SMILES | Activity of CYP51 in the reaction system of colonic contents (CYP51 in gut microbiota)
1 | increased | decreased | reduced | CCC(C)n1ncn(-c2ccc(N3CCN(c4ccc(OCC5COC(Cn6cncn6)(c6ccc(Cl)cc6Cl)O5)cc4)CC3)cc2)c1=O (stereo not shown) [itraconazole] | inhibited
2 | increased | decreased | – | C[C@@H](c1ncncc1F)[C@](O)(Cn1cncn1)c1ccc(F)cc1F [voriconazole] | inhibited

Source: paper PMC8148066 (Acta Pharmaceutica Sinica. B, 2021)
